Measured values as given in paper PMC5706701, “Development of a homogenous high-throughput assay for inositol hexakisphosphate kinase 1 activity” (PLoS ONE, 2017).
Where a name gives a salt, the structure may show the parent alone. Read-outs that look alike come from different tables or passages of the source.

Target: T1, Human IP6K1 (Homo sapiens, UniProt Q92551)
T1 construct: GST (N, cleaved yes); made in house; host or cells: C43 E. coli, pGEX-6P-2
Assay: IP6K1 high-throughput screen of the Sigma LOPAC (ADP-Glo Max, single point);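 further: final compound concentration 10µM in 5% DMSO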
Format: biochemical

[1] = Sigma LOPAC single-point screen, ADP-Glo Max raw signal per well
[2] = Sigma LOPAC single-point screen, Z-score from plate average and StDev
[3] = LOPAC single-point screen, ADP-Glo Max raw signal per well
[4] = LOPAC single-point screen, Z-score from raw signal with plate average and StDev
[5] = LOPAC single-point screen, Z-score against plate average and StDev
[6] = LOPAC single-point screen, ADP-Glo Max luminescence raw signal per well
[7] = LOPAC single-point screen, Z-score from plate average and StDev
[8] = LOPAC single-point screen, Z-score relative to plate average and StDev

T1 sequence (Q92551 whole entry): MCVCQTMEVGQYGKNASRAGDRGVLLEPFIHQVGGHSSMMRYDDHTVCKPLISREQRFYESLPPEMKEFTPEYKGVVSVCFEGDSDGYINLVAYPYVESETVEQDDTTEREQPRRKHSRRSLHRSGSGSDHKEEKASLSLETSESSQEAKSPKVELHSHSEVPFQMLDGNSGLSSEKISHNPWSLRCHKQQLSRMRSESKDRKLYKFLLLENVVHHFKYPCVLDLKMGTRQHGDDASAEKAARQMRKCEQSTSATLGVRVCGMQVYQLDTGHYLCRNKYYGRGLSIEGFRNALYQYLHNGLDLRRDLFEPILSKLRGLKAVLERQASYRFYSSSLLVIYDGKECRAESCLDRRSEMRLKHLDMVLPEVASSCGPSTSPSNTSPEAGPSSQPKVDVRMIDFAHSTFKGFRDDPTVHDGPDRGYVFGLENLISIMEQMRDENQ

NC(=O)OCC(COC(N)=O)c1ccccc1 [Felbamate]
Raw Signal [1]: 58283 | Z-score [2]: 0.6328

Cl.Cn1ccc2cc(NC(=O)Nc3cccnc3)ccc21 [SB 200646 hydrochloride]
Raw Signal [3]: 55663 | Z-score [4]: -0.3963

CCOC(=O)c1ncn2c1[C@@H]1CCCN1C(=O)c1cc(OC)ccc1-2 [L-655,708]
Raw Signal [3]: 54093 | Z-score [5]: -0.05049

O=[N+]([O-])c1cccc2c(Br)n[nH]c12 [3-Bromo-7-nitroindazole]
Raw Signal [6]: 68484 | Z-score [7]: 1.862

CC1(C)CCC2=C(O1)c1ccccc1C(=O)C2=O [beta-Lapachone]
Raw Signal [3]: 54181 | Z-score [5]: -0.03571

CC(C)(CO)Cc1cc(C(C)(C)C)c(O)c(C(C)(C)C)c1 [CGP-7930]
Raw Signal [1]: 64858 | Z-score [2]: 1.223

O=C(NCC1CCCCN1)c1cc(OCC(F)(F)F)ccc1OCC(F)(F)F (centres unmarked) [Flecainide acetate]
Raw Signal [6]: 50763 | Z-score [8]: -0.8944

Cl.Cl.Cl.Ic1ccc(N2CCN(Cc3c[nH]c4ncccc34)CC2)cc1 [L-750,667 trihydrochloride]
Raw Signal [1]: 61468 | Z-score [2]: 1.1887

Cl.NCCc1ccc(S(=O)(=O)F)cc1
Raw Signal [3]: 58918 | Z-score [5]: 0.177

NS 521 oxalate
Raw Signal [3]: 56111 | Z-score [5]: 0.2886

COc1ccccc1N1CCN(CCCNc2c(C)c(=O)n(C)c(=O)n2C)CC1 [Urapidil, 5-Methyl-]
Raw Signal [1]: 62058 | Z-score [2]: 1.172

COc1cc2nc(N3CCN(C(=O)C4CCCO4)CC3)nc(N)c2cc1OC (centres unmarked) [Terazosin hydrochloride]
Raw Signal [3]: 54152 | Z-score [4]: -0.3637

CNC(=O)[C@H]1O[C@@H](n2cnc3c(NCc4ccc(N)cc4)ncnc32)[C@H](O)[C@@H]1O [AB-MECA]
Raw Signal [6]: 53262 | Z-score [8]: -0.8192

CCNC(=O)N1CCN(CCCC(c2ccc(F)cc2)c2ccc(F)cc2)CC1 [Amperozide hydrochloride]
Raw Signal [6]: 52806 | Z-score [8]: -0.8995

C[C@H]1CCC/C=C/[C@@H]2C[C@H](O)C[C@H]2[C@H](O)/C=C/C(=O)O1
Raw Signal [1]: 59928 | Z-score [2]: 0.3549

CN(C)CCCN1c2ccccc2Sc2ccccc21 [Promazine hydrochloride]
Raw Signal [6]: 63198 | Z-score [7]: 1.394

CCc1cc(Cl)c(O)c(C(=O)NC[C@@H]2CCCN2CC)c1OC.Cl [S-(-)-Eticlopride hydrochloride]
Raw Signal [6]: 63565 | Z-score [7]: 1.706

Nc1cc(N2CCCCC2)nc(N)[n+]1[O-] [Minoxidil]
Raw Signal [3]: 52091 | Z-score [4]: -0.3869

N=C1Sc2ccccc2C2=NCCCN12 [PD 404,182]
Raw Signal [3]: 56268 | Z-score [5]: 0.315

O=C(Nc1ccccc1)c1cc([N+](=O)[O-])ccc1Cl [GW9662]
Raw Signal [3]: 52726 | Z-score [4]: -0.2802

Cc1ncc(CNC(=O)N(CCCl)N=O)c(N)n1 [Nimustine hydrochloride]
Raw Signal [3]: 54692 | Z-score [5]: 0.05015

Cc1nc(N=Nc2cc(S(=O)(=O)[O-])c3cc([N+](=O)[O-])cc(S(=O)(=O)[O-])c3c2)c(COP(=O)([O-])[O-])c(C=O)c1O.[Na+].[Na+].[Na+].[Na+] [PPNDS tetrasodium]
Raw Signal [6]: 31816 | Z-score [8]: -3.794

O=P(O)(O)C(Cl)(Cl)P(=O)(O)O [Clodronic acid]
Raw Signal [3]: 56368 | Z-score [5]: 0.2439

CC1=C(/C=C/C(C)=C/C=C/C(C)=C/C(=O)O)C(C)(C)CCC1 [Retinoic acid]
Raw Signal [6]: 50659 | Z-score [8]: -1.042

CC(=O)Oc1ccccc1C(=O)O [Acetylsalicylic acid]
Raw Signal [6]: 52950 | Z-score [8]: -0.8741

C[N+](C)(C)CCCCCCCCCC[N+](C)(C)C.[Br-].[Br-] [Decamethonium dibromide]
Raw Signal [6]: 52379 | Z-score [8]: -0.5662

CCn1nc(C(=O)O)c(=O)c2cc3c(cc21)OCO3 [Cinoxacin]
Raw Signal [3]: 58068 | Z-score [5]: 0.02728

CNC(=O)[C@H]1O[C@@H](n2cnc3c(NCc4cccc(I)c4)nc(Cl)nc32)[C@H](O)[C@@H]1O [Chloro-IB-MECA]
Raw Signal [6]: 50053 | Z-score [8]: -1.039

CC(C)COCC(CN(Cc1ccccc1)c1ccccc1)N1CCCC1 (centres unmarked) [Bepridil hydrochloride]
Raw Signal [1]: 60020 | Z-score [2]: 0.3711

CN1[C@@H]2CC[C@H]1C[C@@H](OC(=O)C(CO)c1ccccc1)C2 (some centres unmarked) [Atropine sulfate]
Raw Signal [3]: 57358 | Z-score [4]: -0.09777

C[N+](C)(C)CCCCCC[N+](C)(C)C.[Cl-].[Cl-] [Hexamethonium dichloride]
Raw Signal [1]: 57643 | Z-score [2]: 0.5028

C/C=C1\C(=O)C[C@H]2[C@@H]3CCC4=CC(=O)CC[C@]4(C)[C@H]3CC[C@]12C [(Z)-Gugglesterone]
Raw Signal [6]: 49571 | Z-score [8]: -1.1365

CC(C)=CCC/C(C)=C/CC/C(C)=C/CSc1ccccc1C(=O)O [Farnesylthiosalicylic acid]
Raw Signal [6]: 51239 | Z-score [8]: -0.7977

CSC(N)=NCCC[C@H](N)C(=O)O [S-Methyl-L-thiocitrulline acetate]
Raw Signal [3]: 53034 | Z-score [4]: -0.2284

COc1ccc2c(c1)CC[C@@H]1[C@@H]2CC[C@]2(C)[C@@H](NCCCCCCN3C(=O)C=CC3=O)CC[C@@H]12 [U-73122]
Raw Signal [3]: 55186 | Z-score [4]: -0.1628

COCC(=O)O[C@]1(CCN(C)CCCc2nc3ccccc3[nH]2)CCc2cc(F)ccc2[C@@H]1C(C)C [Mibefradil dihydrochloride]
Raw Signal [6]: 48952 | Z-score [8]: -0.9143

CC1=C(C(=O)O)N2C(=O)[C@@H](NC(=O)[C@H](N)c3ccccc3)[C@H]2SC1.O [Cephalexin hydrate]
Raw Signal [1]: 61524 | Z-score [2]: 0.636

O=C1OC(=O)[C@H]2[C@@H]1[C@@H]1CC[C@H]2O1 [Norcantharidin]
Raw Signal [3]: 52142 | Z-score [4]: -0.3783

CC(C)(C)[C@]1(O)CCN2C[C@H]3c4ccccc4CCc4cccc(c43)[C@@H]2C1 [(+)-Butaclamol hydrochloride]
Raw Signal [6]: 54506 | Z-score [8]: -0.6001

CCN(CC)CC#CCOC(=O)C(O)(c1ccccc1)C1CCCCC1 (centres unmarked) [Oxybutynin Chloride]
Raw Signal [3]: 55631 | Z-score [5]: 0.2079

Cl.NCCS [Cysteamine hydrochloride]
Raw Signal [6]: 49886 | Z-score [8]: -0.7574

COc1ccccc1N1CCN(CCN2C(=O)CC3(CCCC3)CC2=O)CC1.Cl.Cl [BMY 7378 dihydrochloride]
Raw Signal [6]: 52642 | Z-score [8]: -0.9284

CN1CCCC1c1cccnc1.O=C(O)C(O)C(O)C(=O)O (single isomer, unassigned; (-)) [(-)-Nicotine hydrogen tartrate salt]
Raw Signal: 64466 | Z-score: 1.692

Nc1nc2ccc(OC(F)(F)F)cc2s1 [Riluzole]
Raw Signal [6]: 52217 | Z-score [8]: -0.7396

C[N+](C)(C)CC(=O)O [Betaine hydrochloride]
Raw Signal [1]: 62144 | Z-score [2]: 0.7452

Cc1scc2c1N(C(=O)CN1CCN(C)CC1)c1ccccc1NC2=O [Telenzepine dihydrochloride]
Raw Signal [1]: 58050 | Z-score [2]: 0.3937

C#CCN(C)Cc1ccccc1 [Pargyline hydrochloride]
Raw Signal [3]: 54085 | Z-score [4]: -0.3767

S=C(NC1CCCCC1)N1CCC(c2cnc[nH]2)CC1 [Thioperamide maleate]
Raw Signal [3]: 54981 | Z-score [4]: -0.2026

R(-)-Me5
Raw Signal [3]: 53002 | Z-score [4]: -0.2338

Cl.NC[C@@H]1O[C@H](C23CC4CC(CC(C4)C2)C3)Cc2c1ccc(O)c2O [A-77636 hydrochloride]
Raw Signal [3]: 56453 | Z-score [4]: -0.2572

CN(C)S(=O)(=O)c1ccc2c(c1)/C(=C/c1cc3c([nH]1)CCCC3)C(=O)N2 [SU 6656]
Raw Signal [3]: 57564 | Z-score [5]: 0.2992

N[C@@H](Cn1cc(I)c(=O)[nH]c1=O)C(=O)O [S-5-Iodowillardiine]
Raw Signal [3]: 55016 | Z-score [4]: -0.1958

CC#CCOC(=O)c1c(C)nc2sc3c(c2c1N)CCC(O)C3 (centres unmarked) [SB 205384]
Raw Signal [1]: 57931 | Z-score [2]: 0.3705

O=C1C=CC(=O)C=C1 [p-Benzoquinone]
Raw Signal [6]: 51681 | Z-score [8]: -1.098

CN1CC[C@]2(CCN3CCc4c(oc5ccccc45)[C@@H]3C2)N(C)C1=O.Cl [MK-912]
Raw Signal [6]: 51307 | Z-score [8]: -0.5186

CC(C)(C)c1cc(/C=C(\C#N)C(N)=S)cc(C(C)(C)C)c1O [Tyrphostin AG 879]
Raw Signal [3]: 56085 | Z-score [5]: 0.01189

COCCOC(=O)C1=C(C)NC(C)=C(C(=O)OC(C)C)C1c1cccc([N+](=O)[O-])c1 (centres unmarked) [Nimodipine]
Raw Signal [3]: 55940 | Z-score [5]: 0.2599

O=c1ccc2ccc(O)c(O)c2o1 [Daphnetin]
Raw Signal [3]: 55045 | Z-score [5]: -0.02478

CCC1(c2ccccc2)C(=O)NCNC1=O [Primidone]
Raw Signal [1]: 58828 | Z-score [2]: 0.5448

Nc1ncnc2c1ncn2[C@@H]1O[C@H](COP(=O)(O)OP(=O)(O)OP(=O)(O)OP(=O)(O)OC[C@H]2O[C@@H](n3cnc4c(N)ncnc43)[C@H](O)[C@@H]2O)[C@@H](O)[C@H]1O
Raw Signal [3]: 55437 | Z-score [5]: 0.05483

17alpha-hydroxyprogesterone
Raw Signal [1]: 57278 | Z-score [2]: 0.4287

O=C1CCC(c2ccc(-n3ccnc3)cc2)=NN1 [Imazodan]
Raw Signal [1]: 60009 | Z-score [2]: 0.9834

Nc1ncnc2c1ncn2C1CCCC1 [9-cyclopentyladenine]
Raw Signal [1]: 60166 | Z-score [2]: 0.3968

Cl.Clc1ccc(N2CCN(Cc3c[nH]c4ncccc34)CC2)cc1 [L-745,870 hydrochloride]
Raw Signal [3]: 55866 | Z-score [5]: 0.2474
